Assay [1] concerns Male Wistar rats. The assay can be described thus: Diuretic activity (oral, saline-loaded rats). The note with it: for Increase in volume of Urine / Na+/K+ / Increase in K+ excretion / Increase in Na+ excretion: 6 hours; for Increase in volume of Urine / Increase in K+ excretion / Increase in Na+ excretion: relative to control; for Na+/K+: relative to control (1.00). The format is in vivo, rat. As for the experimental part:
Male Wistar rats weighing 150 to 300 g were fasted for 18 hours. A test compound and saline (25 ml/kg) were orally administered to the test rats and only saline was administered to the control rats. Then, urine was collected for 6 hours. The test was carried out using 3 groups of animals per test compound, each group consisting of 3 animals. The volume of the urine was measured by using a measuring cylinder and electrolytes (Na^+ and K^+) in the urine were assayed with a flame photometer (Model […] manufactured by Hitachi Ltd.). The parameters in Table 3 are all expressed by relative value to the control.

For assay [2], the system named is glycerol-induced renal insufficiency in male Wistar rats. Kind of assay: Renal protecting activity (glycerol-induced renal insufficiency model), serum creatinine and urea nitrogen. The format is in vivo, rat. The note with it: i.p.; for Creatinine content in serum, test compound administered / Urea nitrogen content in serum, test compound administered: 24 hours after glycerol; for increases in creatinine content and urea nitrogen content of the serum (in words): Compound 1 at 0.1 mg/kg (p<0.001). Here is the method:
Renal insufficiency is the condition that the homeostasis of body fluid is unable to be maintained by disorder of renal function. It is known that subcutaneous or intramuscular administration of glycerol to rat induces acute renal insufficiency characterized by renal tubular disturbance [Can. J. Physiol.
(§1) Male Wistar rats were fisted from both food and water for 18 hours. A test compound or saline (control) was intraperitoneally administered to the rats. After 30 minutes, the rats were anesthesized with ether and the back skin was picked up and 0.8 ml/100 g of 50% glycerol was subcutaneously administered. Twenty four hours after the glycerol injection, the rats were anesthesized with ether and 5 ml of the blood was collected from the descending aorta. After being allowed to stand for 30 minutes or longer, the blood sample was centrifuged at 3000 rpm for 10 minutes to obtain the serum. Creatinine in the serum sample was determined using autoanalyzer (AU510, Olympus Optical Co., Ltd.) or clinical analysis kit of creatinine (Creatinine Test Wako; by Wako Pure Chemical Ind., Japan). Urea nitrogen in the serum was determined using autoanalyzer (AU510; made by Olympus Optical Co., Ltd.) or clinical analysis kit of urea nitrogen (Urea Nitrogen Test Wako; by Wako Pure Chemical Ind., Japan).
Test of the significance between the control group and the test compound-administered group was performed by the Student's t-test (n=8 to 10).

For assay [3], the target named is T1, Adenosine A1 receptor (Cavia porcellus, UniProt P47745).
T1 construct: from tissue; host or cells: guinea pig cerebrum membranes
T1 sequence (P47745 1-326): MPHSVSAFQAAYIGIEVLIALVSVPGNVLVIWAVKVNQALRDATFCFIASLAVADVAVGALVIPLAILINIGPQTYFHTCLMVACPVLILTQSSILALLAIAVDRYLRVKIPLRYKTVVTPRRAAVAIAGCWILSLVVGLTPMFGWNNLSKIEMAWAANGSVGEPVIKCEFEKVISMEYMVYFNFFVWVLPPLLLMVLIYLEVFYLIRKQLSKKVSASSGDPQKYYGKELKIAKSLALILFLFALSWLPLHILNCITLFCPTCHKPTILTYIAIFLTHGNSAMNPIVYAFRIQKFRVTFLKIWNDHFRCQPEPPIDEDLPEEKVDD
Kind of assay: Adenosine A1 receptor binding (3H-CHA). The note with it: guinea pig cerebrum; for Ki: 3H-CHA, Cheng-Prusoff's equation; for inhibition at 100 µM: 10^-4 M test compound; for inhibition at 100 µM / inhibition at 10 µM: 3H-CHA 1.1 nM; for inhibition at 10 µM: 10^-5 M test compound. As for the experimental part:
This test was conducted according to the method of Bruns et al. [Proc. Natl. Acad. Sci., 77, 5547 (1980)] with slight modification.
Cerebrum of a guinea pig was suspended in ice cooled 50 mM Tris hydroxymethyl aminomethane hydrochloride (Tris HCl) buffer (pH 7.7) by using Polytron homogenizer (manufactured by Kinematicas Co.). The suspension was centrifuged (50,000×g, 10 minutes), and the precipitate was suspended again in the same amount of 50 mM Tris HCl buffer. The suspension was centrifuged under the same conditions, and the precipitate obtained was suspended once again in 50 mM Tris HCl buffer to give a tissue concentration of 100 mg (wet weight)/ml. The tissue suspension was incubated at 37° C. for 30 minutes in the presence of 0.02 unit/mg tissue of adenosine deaminase (manufactured by Sigma Co.). The tissue suspension was then centrifuged (50,000×g, 10 minutes), and 50 mM Tris HCl buffer was added to the precipitate to adjust the concentration of tissue to 10 mg (wet weight)/ml.
To 1 ml of the thus prepared tissue suspension were added 50 μl of cyclohexyladenosine labeled with tritium [^3 H-CHA, 27 Ci/mmol, manufactured by New England Nuclear Co.] (final concentration: 1.1 nM) and 50 μl of a test compound. The mixture was allowed to stand at 25° C. for 90 minutes and then rapidly filtered by suction through a glass fiber filter (GF/C manufactured by Whatman Co.). The filter was immediately washed three times with 5 ml each of ice cold 50 mM Tris HCl buffer, and transferred to a vial, and a scintillator (EX-H by Wako Pure Chemical Industries, Ltd.) was added thereto. The radioactivity on the filter was determined with a scintillation counter (manufactured by Packard Instrument Co.).
The inhibition rate of the test compound against the binding of A1 receptor (^3 H-CHA binding) was calculated by the following equation: [formula]
2. "T" means the radioactivity of ^3 H-CHA bound in the absence of a test compound.
3. "N" means the radioactivity of ^3 H-CHA bound in the presence of 10 μM N^6 -(L-2-phenylisopropyl)adenosine (manufactured by Sigma Co.).
The inhibition constant (Ki value) shown in the table was calculated by the Cheng-Prusoff's equation.

Assay [4] addresses T2, Adenosine A2 receptor (Rattus norvegicus, UniProt P30543).
T2 construct: using rat corpus striatum to prepare the final precipitate; from tissue; host or cells: rat corpus striatum membranes
Kind of assay: Adenosine A2 receptor binding test (3H-NECA). The note with it: for Ki: 3H-NECA, CPA 50 nM, rat corpus striatum; for inhibition at 10 µM / inhibition at 100 µM: read-out: A2 Receptor Inhibition (%). As for the experimental part: The similar procedure as in 1) above was repeated using rat corpus striatum to prepare the final precipitate. The precipitate was suspended in 50 mM Tris HCl buffer containing 10 mM magnesium chloride and 0.02 unit/mg tissue of adenosine deaminase (manufactured by Sigma Co.) to give a tissue concentration of 5 mg (wet weight)/ml.
To 1 ml of the thus prepared tissue suspension were added 50 μl of a mixture of N-ethylcarboxamidoadenosine labeled with tritium [^3 H-NECA, 26 Ci/mmol, manufactured by Amersham Co.] […] (final concentration: 50 nM), and 50 μl of a test compound. The mixture was allowed to stand at 25° C. for 120 minutes and then treated in the same manner as in 1) above to determine the radioactivity.
The inhibition rate of the test compound against the binding of A2 receptor (^3 H-NECA binding) was calculated by the following equation: [formula]
2. "T" means the radioactivity of ^3 H-NECA bound in the absence of a test compound.
3. "N" means the radioactivity of ^3 H-NECA bound in the presence of 100 μM CPA.
The Ki value shown in the table was calculated by the following equation: [formula]
L: Concentration of ^3 H-NECA
Kd: Dissociation constant of ^3 H-NECA
Kc: Inhibition constant of CPA

The test system of assay [5] is left kidneys of male Wistar rats with glycerol-induced renal insufficiency. The assay can be described thus: Pathological examination of removed kidneys (glycerol-induced renal insufficiency model). It is filed as in vivo, rat. As for the experimental part:
as §1
Further, the left kidneys were taken out from the animals of the test compound-treated groups and the control groups to prepare pathological samples.

Setting [6] is: 1 mg/kg, control 4.53 ± 0.19, *** P < 0.001, ** P < 0.01.
The mark [7] stands for this setting: 1 mg/kg, control 193.6 ± 6.4, *** P < 0.001, ** P < 0.01.

For orientation: Ki means a dissociation constant, usually derived from enzyme kinetics or from competition with a known ligand. The term inhibition denotes the relative decrease from the control value, in per cent.

T2 sequence (P30543 whole entry): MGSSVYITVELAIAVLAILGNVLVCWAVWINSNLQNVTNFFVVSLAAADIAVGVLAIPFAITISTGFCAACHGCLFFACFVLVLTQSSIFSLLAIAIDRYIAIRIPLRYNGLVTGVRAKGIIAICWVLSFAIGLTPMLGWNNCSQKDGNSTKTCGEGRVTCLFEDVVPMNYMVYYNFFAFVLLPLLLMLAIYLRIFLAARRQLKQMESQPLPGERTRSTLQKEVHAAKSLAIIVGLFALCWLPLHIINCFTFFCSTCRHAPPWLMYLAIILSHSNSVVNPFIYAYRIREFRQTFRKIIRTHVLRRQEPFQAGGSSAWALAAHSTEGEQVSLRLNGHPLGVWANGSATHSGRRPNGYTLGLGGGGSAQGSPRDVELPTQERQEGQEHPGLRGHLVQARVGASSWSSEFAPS

With `NS(=O)(=O)c1cc(C(=O)O)c(NCc2ccco2)cc1Cl` [Furosemide, reference compound], in assay [1] (25 mg/kg), the “Increase in volume of Urine” value is 75% and the “Na+/K+” value is recorded as 1.07. Besides, in assay [2] (10 mg/kg, control 3.22 ± 0.35, no significance mark), the “Creatinine content in serum, test compound administered” value (“Creatinine content in serum” below) was determined as 4.17 ± 0.41 mg/dL. Also, the “Urea nitrogen content in serum, test compound administered” value (from here on “Urea nitrogen content in serum”) in assay [2] (10 mg/kg, control 110.7 ± 9.4, * P < 0.05) came out at 150.3 ± 13.7 mg/dL. Besides, in assay [2] (conclusion from Table 4), the “serum creatinine (in words)” value is on record as “tendency to increase the serum creatinine”.

As for `O=c1c2[nH]c(C(C3CC3)C3CC3)nc2n(C2CC2)c(=O)n1C1CC1` [Compound 4, 1,3-Dicyclopropyl-8-dicyclopropylmethylxanthine], in assay [3], the Ki is 42 nM, the inhibition at 100 µM is 99% and the inhibition at 10 µM was determined as 99%. In assay [4], the Ki amounted to 2400 nM, the inhibition at 10 µM worked out at 104% and the inhibition at 100 µM was determined as 108%. Besides, in assay [1] (1.6 mg/kg), the “Increase in K+ excretion” value is 18%, the “Increase in Na+ excretion” value came out at 54%, the “Increase in volume of Urine” value worked out at 54% and the “Na+/K+” value was 1.31. The “Creatinine content in serum” value in assay [2] (setting [6]) was determined as 2.55 ± 0.43 mg/dL. Further, the “Urea nitrogen content in serum” value in assay [2] (setting [7]) came to 108.5 ± 16.8 mg/dL.

For the compound `Cn1c(=O)c2[nH]cnc2n(C)c1=O` [Aminophylline, reference compound], in assay [1] (25 mg/kg), the “Increase in K+ excretion” value came out at 17%, the “Increase in Na+ excretion” value is 89%, the “Increase in volume of Urine” value is reported as 34% and the “Na+/K+” value was 1.62. In assay [2] (10 mg/kg, control 5.43 ± 0.11, no significance mark), the “Creatinine content in serum” value is 5.32 ± 0.19 mg/dL. Moreover, the “Urea nitrogen content in serum” value in assay [2] (10 mg/kg, control 182.5 ± 3.4, no significance mark) was found to be 174.0 ± 10.4 mg/dL. For the same compound, the “increases in creatinine content and urea nitrogen content of the serum (in words)” value in assay [2] (conclusion from Table 4) is “weak effect”.

Regarding `O=c1c2[nH]c(C(C3CC3)C3CC3)nc2n(CC2CC2)c(=O)n1CC1CC1` [Compound 2, 1,3-Bis(cyclopropylmethyl)-8-dicyclopropylmethylxanthine], in assay [3], the affinity corresponds to a Ki of 2.7 nM, the inhibition at 100 µM worked out at 101% and the inhibition at 10 µM came out at 100%. Also, in assay [4], the affinity, expressed as Ki, was 210 nM; the inhibition at 10 µM worked out at 93%; the inhibition at 100 µM was 100%. Also, in assay [1] (1.6 mg/kg), the “Increase in K+ excretion” value turned out to be 4%, the “Increase in Na+ excretion” value stood at 49%, the “Increase in volume of Urine” value worked out at 43% and the “Na+/K+” value is given as 1.44.

For `O=c1c2[nH]c(C34CC5CC(CC3C5)C4)nc2n(C2CC2)c(=O)n1C1CC1` [Compound 3, 1,3-Dicyclopropyl-8-(3-noradamantyl)xanthine], in assay [3], the inhibitory constant (Ki) is 38 nM, the inhibition at 100 µM stood at 98% and the inhibition at 10 µM was determined as 99%. Also, in assay [4], the inhibition constant Ki amounted to 1300 nM, the inhibition at 10 µM was 78% and the inhibition at 100 µM was 103%. Further, in assay [1] (0.1 mg/kg), the “Increase in K+ excretion” value was 0%, the “Increase in Na+ excretion” value is listed as 52%, the “Increase in volume of Urine” value is on record as 48% and the “Na+/K+” value is reported as 1.52. Also, in assay [1] (1.6 mg/kg), the “Increase in K+ excretion” value was determined as 8%, the “Increase in Na+ excretion” value is 118%, the “Increase in volume of Urine” value amounted to 93% and the “Na+/K+” value is 2.02.

Turning to `O=c1c2[nH]c(C34CC5CC(CC3C5)C4)nc2n(CC2CC2)c(=O)n1CC1CC1` [Compound 1, 1,3-Bis(cyclopropylmethyl)-8-(3-noradamantyl)xanthine], the Ki in assay [3] is 1.9 nM; in assay [4], above 10000 nM. In addition, the inhibition at 100 µM was determined as 101% in assay [3] and 70% in assay [4]. Also, the inhibition at 10 µM turned out to be 99% in assay [3] and 49% in assay [4]. Further, in assay [1] (0.1 mg/kg), the “Increase in K+ excretion” value was determined as 9%. Moreover, the “Increase in Na+ excretion” value in assay [1] (0.1 mg/kg) amounted to 146%. In addition, the “Increase in volume of Urine” value in assay [1] (0.1 mg/kg) is given as 184%. Moreover, the “Na+/K+” value in assay [1] (0.1 mg/kg) is recorded as 2.25. Moreover, the “Na+ diuretic action” value in assay [1] (conclusion in words from Table 3) is on record as “potent”. Further, the “Creatinine content in serum” value came out at 2.52 ± 0.24 mg/dL in assay [2] (0.1 mg/kg, control 4.53 ± 0.19, *** P < 0.001); 1.97 ± 0.21 mg/dL in assay [2] (0.1 mg/kg, control 4.86 ± 0.12, *** P < 0.001); 2.23 ± 0.30 mg/dL in assay [2] (setting [6]). The “Urea nitrogen content in serum” value in assay [2] (0.1 mg/kg, control 152.6 ± 4.1, *** P < 0.001) stood at 61.3 ± 8.7 mg/dL; in assay [2] (0.1 mg/kg, control 193.6 ± 6.4, *** P < 0.001), 109.4 ± 12.8 mg/dL; in assay [2] (setting [7]), 97.2 ± 13.6 mg/dL. Also, in assay [2] (conclusion from Table 4), the “increases in creatinine content and urea nitrogen content of the serum (in words)” value is recorded as “significantly suppressed”. In assay [5], the “state of kidneys (pathological examination)” value is given as “significantly improved”.

Values taken from patent publication US5342841A, “Xanthine derivatives” (Kyowa Hakko Kogyo Co., Ltd., priority 1992, dated 1994).
